Laboratory results as given in patent publication US20220378811A1, “VENETOCLAX DOSING REGIMENS FOR USE IN TREATING MYELODYSPLASTIC SYNDROMES IN COMBINATION WITH AZACITIDINE” (ABBVIE INC., priority 2021, published 2022).

Test: Phase 1b study in previously untreated higher-risk MDS: dose administration, dose reductions and cycle delays in SE1 and SE2
Assay type: in vivo, human
Details: for # of reductions in Venetoclax duration: reductions due to hematologic toxicity
Procedure: Responses were evaluated using IWG 2006 criteria.
Subjects who initiate a cycle of treatment with neutropenia, absolute neutrophil count <1.5×10^9/L, or thrombocytopenia, platelets <75×10^9/L, may be especially sensitive to cytopenias due to abnormal hematopoiesis resulting from the underlying […]. […] However, subjects who initiate a cycle of treatment with absolute neutrophil count 1.5×10^9/L and platelets 75×10^9/L and have a previous response of complete remission, partial remission, or marrow complete remission may require dose reduction, if subsequent absolute neutrophil count nadir <0.500×10^9/L, or platelets nadir <50×10^9/L, if baseline was >100×10^9/L, or platelets <50% if baseline was ≤100×10^9/L.

Venetoclax dose delay by end of Cycle 2, Median # days (SE1, n = 22): 7.5 days
Venetoclax dose delay by end of Cycle 3, Median # days (SE1, n = 22): 14 days
Venetoclax dose delay by end of Cycle 4, Median # days (SE1, n = 22): 17 days
Venetoclax dose delay by end of Cycle 5, Median # days (SE1, n = 22): 14 days
Venetoclax dose delay by end of Cycle 6, Median # days (SE1, n = 22): 7 days
Venetoclax dose delay by end of Cycle 2, Median # days (SE2, n = 21): 8 days
Venetoclax dose delay by end of Cycle 3, Median # days (SE2, n = 21): 8.5 days
Venetoclax dose delay by end of Cycle 4, Median # days (SE2, n = 21): 9 days
Venetoclax dose delay by end of Cycle 5, Median # days (SE2, n = 21): 14 days
Venetoclax dose delay by end of Cycle 6, Median # days (SE2, n = 21): 14 days
Compound: CC1(C)CCC(CN2CCN(c3ccc(C(=O)NS(=O)(=O)c4ccc(NCC5CCOCC5)c([N+](=O)[O-])c4)c(Oc4cnc5[nH]ccc5c4)c3)CC2)=C(c2ccc(Cl)cc2)C1 [Venetoclax, 4-(4-{[2-(4-chlorophenyl)-4,4-dimethylcyclohex-1-en-1-yl]methyl}piperazin-1-yl)-N-({3nitro-4-[(tetrahydro-2H-pyran-4-ylmethyl)amino]phenyl}sulfonyl)-2-(1H-pyrrolo[2,3-b]pyridin5-yloxy)benzamide]
# of reductions in Venetoclax duration (SE1, n = 22): 3 (14)
# of reductions in Venetoclax duration (SE2, n = 21): 0
